These results are taken from US7790474B1, “p53 modulators” (Schering Corporation, priority 2005, dated 2010).

In the first assay the test system is DLD-1 human colon adenocarcinoma cells. The assay can be described thus: In vivo anti-tumor study, staged model. More on the design: species or system Nude mice. The settings on record: 10 mpk orally every 12 hours for 26 days, dosing from day 10. Here is the method:
Staged Model. In this model the initiation of therapy was delayed until the tumors had reached a certain volume. Nude mice (5-6 week old females) were inoculated with 5×10^6 DLD-1 human colon adenocarcinoma cells on day 1, and then randomized on day 10. The dosing of these mice was started on day 10. Groups 1 to 5, having 10 mice in each group, were dosed orally every 12 hours with no treatment, vehicle,
[drawing 36] 50 mpk, respectively, for 26 days. All animals were carefully monitored at least daily and each tumor was measured twice a week. The tumor growth inhibition level observed is set forth below in Table 4.
Regarding `CN(C)CCCNc1nc(CN2CCN(C(c3ccc(Cl)cc3)c3ccc(Cl)cc3)CC2)nc2ccccc12` [drawing 37], the “% inhibition (tumor growth), staged model” value came out at 10.15%.

The assay is the same for the next values; noted with them: 30 mpk orally every 12 hours for 26 days, dosing from day 10.
Turning to `CN(C)CCCNc1nc(CN2CCN(C(c3ccc(Cl)cc3)c3ccc(Cl)cc3)CC2)nc2ccccc12` [drawing 37], the “% inhibition (tumor growth), staged model” value was found to be 14.73%.

Staying with this assay, now noted: 50 mpk orally every 12 hours for 26 days, dosing from day 10.
As for `CN(C)CCCNc1nc(CN2CCN(C(c3ccc(Cl)cc3)c3ccc(Cl)cc3)CC2)nc2ccccc12` [drawing 37], the “% inhibition (tumor growth), staged model” value worked out at 44.31%.

Another assay has the same test system. Nature of the assay: In vivo anti-tumor study, unstaged model. More on the design: species or system Nude mice. The note with it: 10 mpk orally every 12 hours for 31 days, dosing from day 4. Here is the method: Unstaged Model. In this model, the therapy was started immediately after the tumor cells had been inoculated. Nude mice (5-6 week old females) were inoculated with 5×10^6 DLD-1 human colon adenocarcinoma cells on day 1, and randomized on day 3. The dosing of these mice was started on day 4. Groups 1 to 4, having 10 mice in each group, were dosed orally every 12 hours with vehicle,
[drawing 33] 50 mpk, respectively, for 31 days. All animals were carefully monitored at least daily and each tumor was measured twice a week. The tumor growth inhibition level observed is set forth below in Table 3.
For the compound `CN(C)CCCNc1nc(CN2CCN(C(c3ccc(Cl)cc3)c3ccc(Cl)cc3)CC2)nc2ccccc12` [drawing 34], the “% inhibition (tumor growth), unstaged model” value (“% inhibition … unstaged model” below) was 48.30%.

Staying with this assay, now noted: 30 mpk orally every 12 hours for 31 days, dosing from day 4.
With `CN(C)CCCNc1nc(CN2CCN(C(c3ccc(Cl)cc3)c3ccc(Cl)cc3)CC2)nc2ccccc12` [drawing 34], the “% inhibition … unstaged model” value came out at 43.23%.

Staying with this assay, now noted: 50 mpk orally every 12 hours for 31 days, dosing from day 4.
In the case of `CN(C)CCCNc1nc(CN2CCN(C(c3ccc(Cl)cc3)c3ccc(Cl)cc3)CC2)nc2ccccc12` [drawing 34], the “% inhibition … unstaged model” value stood at 78.96%.

A further assay concerns GST-p53 DNA binding domain (aa 92-aa 312). The assay can be described thus: Scintillation Proximity Assay (displacement of 3H-labeled p53 binder). The settings on record: percentage of 3H-labeled ligand remaining bound, number in brackets = average of n. Here is the method:
[drawing 38] (^3H at C bearing the chlorophenyl groups and the piperazinyl group), a radiolabeled small molecule which binds to p53, and the GST-p53 DNA binding domain (aa 92-aa 312), a quantitative screening assay was used to determine if various molecules comprise p53 binding activity. The assay is based on Scintillation Proximity Assay (SPA) technology. The complex of GST-p53,
[drawing 39] and Glutathione-SPA beads (Amersham Biosciences) were incubated with mixing for 1 hour at room temperature in the presence of the compounds to be screened. The signal was read on a Microbeta.
The numerical values expressed refer to the percentage of labeled
[drawing 40] remaining bound to the mutant p53 protein after exposure to the indicated compound.
On to `COc1ccc(Cl)cc1NC(=O)NCc1nc(N[C@H](C(N)=O)C(C)C)c2ccccc2n1` [Formula 60], for which the “SPA ASSAY % Residual T @ 2 ug/mL of drug (Average of)” value (“SPA ASSAY % Residual T @ 2 ug/mL” for short) is reported as 60.0%.
Still for that read-out and setting: under `CN(C)CCCOc1nc(CN2CCN(C(c3ccc(Cl)cc3)c3ccc(Cl)cc3)CC2)nc2ccccc12` [Formula 37] stands 77.0%.
On the same count and under the same terms, under `CCC(C)(C)C1CCC(N2CCN(Cc3nc(NCCCN(C)C)c4ccccc4n3)CC2)C1` (stereo not shown) [Formula 38] stands 55.7%; under `CN(C)CCCNc1nc(CN(C)Cc2cc(Cl)ccc2Cl)nc2ccccc12` [Formula 87], 49.5 (3) %; under `OC1CCN(c2nc(CN3CCN(C(c4ccc(Cl)cc4)c4ccc(Cl)cc4)CC3)nc3ccccc23)CC1` [Formula 51], 61.6%.
On to `COC(=O)[C@@H](Nc1nc(CNC(=O)Nc2cccc(Br)c2)nc2ccccc12)C(C)C` [Formula 58], for which the “SPA ASSAY % Residual T @ 2 ug/mL” value was 44.9%.
Consider `CN(C)CCCNc1nc(CN(C)Cc2ccc(Oc3ccccc3)cc2)nc2ccccc12` [Formula 91], for which the “SPA ASSAY % Residual T @ 2 ug/mL” value was determined as 54.0%.
Still for that read-out and setting: next, `CN(C)CCCNc1nc(CN(C)Cc2ccoc2)nc2ccccc12` [Formula 64]: 50.7 (3) %; `CN(C)CCCNc1nc(CN(C)Cc2cccc(Cl)c2Cl)nc2ccccc12` [Formula 86]: 61.1%; `CN(C)CCCNc1nc(CN(C)C2CCCCC2)nc2ccccc12` [Formula 96]: 45.5 (3) %.
Same read-out and setting: under `CC(C)COC(=O)[C@H](CCCN(C)C)Nc1nc(CN2CCN(C(c3ccc(Cl)cc3)c3ccc(Cl)cc3)CC2)nc2ccccc12` [Formula 117] stands 72.5%; under `CN(C)CCCNc1nc(CN(C)Cc2ccccc2)nc2ccccc12` [Formula 35], 22.2%; under `CN(C)CCCNc1nc(CN(C)C2CCC(C(F)(F)F)CC2)nc2ccccc12` (stereo not shown) [Formula 106], 52.8%.
Still for that read-out and setting: under `CN(C)CCCNc1nc(CN(C)Cc2cccc3ccccc23)nc2ccccc12` [Formula 82] stands 52.9%; under `CNCc1nc(NCCCN(C)C)c2ccccc2n1` [Formula 36], 42.6%; under `CN(C)CCCNc1nc(CN2CCN(C(c3ccccc3)c3ccc(OC(F)(F)F)cc3)CC2)nc2ccccc12` (stereo not shown) [Formula 10], 46.1%.
`CN(C)CCCNc1nc(CN(C)C2C[C@@H]3CC[C@H]2C3)nc2ccccc12` (stereo partly shown) [Formula 98]: the “SPA ASSAY % Residual T @ 2 ug/mL” value is listed as 64.4%.
As to `Clc1ccc(C(c2ccc(Cl)cc2)N2CCN(Cc3nc(N4CCc5ccccc5C4)c4ccccc4n3)CC2)cc1` [Formula 44], the “SPA ASSAY % Residual T @ 2 ug/mL” value is given as 83.9%.
On to `CN(C)CCCNc1nc(CN(C)C2CCC(C#N)(c3ccccc3)CC2)nc2ccccc12` (stereo not shown) [Formula 109], for which the “SPA ASSAY % Residual T @ 2 ug/mL” value was 5.5 (2) %.
Same read-out and setting: under `NC(=O)C1CCN(c2nc(CN3CCN(C(c4ccc(Cl)cc4)c4ccc(Cl)cc4)CC3)nc3ccccc23)CC1` [Formula 52] stands 79.9%; under `COc1ccc(NC(=O)N2CCN(Cc3nc(NCCCN(C)C)c4ccccc4n3)CC2)cc1` [Formula 16], 38.0%; under `COc1ccc(Cl)cc1NC(=O)N(C)Cc1nc(NCCCN(C)C)c2ccccc2n1` [Formula 112], 48.4%.
Still for that read-out and setting: next, `CN(Cc1ccccc1)Cc1nc2ccccc2c(=O)[nH]1` [Formula 34]: 36.8%; `CN(C)CCCNc1nc(CN(C)Cc2cccc3cc[nH]c23)nc2ccccc12` [Formula 77]: 25.7%.
Still for that read-out and setting: under `Cc1c(CN(C)Cc2nc(NCCCN(C)C)c3ccccc3n2)sc2ccccc12` [Formula 88] stands 23.6 (3) %; under `COC(=O)[C@@H](Nc1nc(CNC(=O)Nc2ccc(Cl)c(Cl)c2)nc2ccccc12)C(C)C` [Formula 55], 57.0%.
For the compound `CN(C)CCCNc1nc(CN2CCN(Cc3cccc4cc[nH]c34)CC2)nc2ccccc12` [Formula 13], the “SPA ASSAY % Residual T @ 2 ug/mL” value is 37.9%.
Take `CN(C)CCCNc1nc(CN2CCN(Cc3cccc4ccccc34)CC2)nc2ccccc12` [Formula 14]: the “SPA ASSAY % Residual T @ 2 ug/mL” value was determined as 27.9%.
The same measure, in the same setting: under `CC(=O)N1CCC(N(C)Cc2nc(NCCCN(C)C)c3ccccc3n2)CC1` [Formula 101] stands 47.7 (3) %.
The same measure, in the same setting: next, `COC(=O)C1CCN(c2nc(CN3CCN(C(c4ccc(Cl)cc4)c4ccc(Cl)cc4)CC3)nc3ccccc23)CC1` [Formula 53]: 62.7%; `CN(C)CCCNc1nc(CN2CCN(C(c3ccc(Cl)cc3)c3ccc(Cl)cc3)CC2)nc2ccccc12` [Formula 8]: 16.1%; `CN(C)CCCNc1nc(CN(C)Cc2cccc(C#N)c2)nc2ccccc12` [Formula 69]: 50.9%.
The same measure, in the same setting: under `CN(C)CCCNc1nc(CN(C)C2CCSC2)nc2ccccc12` (stereo not shown) [Formula 97] stands 45.0 (3) %.
Consider `CN(C)CCCNc1nc(CN(C)C2CCN(C(=O)c3ccccc3)CC2)nc2ccccc12` [Formula 110], for which the “SPA ASSAY % Residual T @ 2 ug/mL” value is recorded as 20.7 (2) %.
Still for that read-out and setting: next, `CCOC(=O)[C@H](CCN(C)C)Nc1nc(CN2CCN(C(c3ccc(Cl)cc3)c3ccc(Cl)cc3)CC2)nc2ccccc12` [Formula 116]: 47.7%.
On the same count and under the same terms, next, `CN(C)CCCNc1nc(CN(C)C2CCC3(CC2)OCCO3)nc2ccccc12` [Formula 104]: 23.0 (2) %; `CN(C)CCCNc1nc(CN2CCN(C(=O)Nc3ccc(C#N)cc3)CC2)nc2ccccc12` [Formula 40]: 52.5%.
